Measurements published in patent publication US10858364B2, “Imidazopyrazine inhibitors of Bruton's tyrosine kinase” (Acerta Pharma B.V., priority 2016, dated 2020).
pIC50: −log10 of the molar value.

Columns and labels:
[1] = target: T1, BTK (Homo sapiens (Human), UniProt Q06187); test: BTK IMAP with ATP competition and variable pre-incubation; type: biochemical
Protocol: BTK enzyme activity with ATP competition was measured using the IMAP (immobilized metal ion affinity-based fluorescence polarization) assay. BTK enzyme (Millipore) was diluted to 16 nM, respectively in Kinase Reaction (KR) buffer (10 mM Tris-HCl, 10 mM MgCl2, 0.01% Tween-20, 0.1% NaN3, 1 mM DTT, 2 mM MnCl2, pH 7.5). Serial dilutions […] from 1 mM to 31.6 nM of test compounds were made in 100% DMSO. The dilutions in DMSO were then diluted 25-fold in KR-buffer. Final compound concentrations ranged from 10 μM to 0.316 nM. The assay is performed as follows: 5 μL/well of test compound in KR buffer (final DMSO concentration in the assay is 1%) was mixed with 5 µl/well of BTK or ITK enzyme (final concentration in the assay was 4 and 8 nM for BTK and ITK, respectively). Test compounds and kinase enzyme were pre-incubated 0, 30, or 60 min, before adding 5 μL/well of 200 nM Fluorescein labeled substrate peptide (Blk/Lyntide substrate, Molecular Devices) in KR-buffer. Final peptide substrate concentration in assay was 50 nM. The kinase assay was started by adding 5 μL/well of 20, 100, or 400 μM ATP in KR-buffer (final ATP concentration was 5, 25, or 100 μM ATP). Following incubation for 2h at room temperature the enzyme reaction was stopped by adding 40 μL/well IMAP Progressive Binding Solution (Molecular Devices), according to product instructions, using 60% lx buffer A and 40% lx buffer B with 800× diluted beads). After 60 min incubation at room temperature in the dark the FP signal was read. Fluorescence at 535 nm was measured using parallel and perpendicular filters to determine differences in rotation due to binding of the phosphorylated substrate peptide to the beads. Values were calculated as percentage of the difference in readout (AmPi) of the controls with and without ATP. IC50 values were determined by curve fitting of the experimental results using Dotmatics. […] M27 was tested in the BTK IMAP ATP competition assays with variable pre-incubation times (0, 30, and 60 minutes) and ATP concentrations (5, 25 and 100 μM). The results in Table 2 and FIG. 2 confirm that M27 is covalent inhibitors of BTK. […] Furthermore, there is loss of ATP competition following pre-incubation of BTK with M27, a result that is typical for compounds that bind covalently.

[2] = target: CYP2C8 (Homo sapiens (Human), UniProt P10632); test: CYP inhibition, CYP2C8; type: in vitro ADME
Sequence of CYP2C8 (P10632 whole entry): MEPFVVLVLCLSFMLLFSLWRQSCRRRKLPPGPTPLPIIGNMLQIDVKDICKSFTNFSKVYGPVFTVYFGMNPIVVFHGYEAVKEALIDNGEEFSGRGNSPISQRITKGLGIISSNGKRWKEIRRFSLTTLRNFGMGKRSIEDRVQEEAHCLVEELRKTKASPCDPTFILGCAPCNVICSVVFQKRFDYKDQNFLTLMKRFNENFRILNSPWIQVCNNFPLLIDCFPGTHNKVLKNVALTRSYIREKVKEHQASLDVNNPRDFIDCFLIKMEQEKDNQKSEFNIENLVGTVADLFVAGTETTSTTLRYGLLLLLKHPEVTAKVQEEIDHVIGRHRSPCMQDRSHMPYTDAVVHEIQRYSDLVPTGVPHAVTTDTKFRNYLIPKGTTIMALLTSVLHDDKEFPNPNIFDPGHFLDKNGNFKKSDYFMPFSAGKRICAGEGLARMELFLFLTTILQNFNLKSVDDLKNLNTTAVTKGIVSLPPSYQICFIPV

[3] = target: T1, BTK; test: BTK target occupancy ELISA in Ramos B cells; type: cell-based; settings: 2h incubation
Protocol: Ramos B cells (ATCC, cat no. CRL-1923) were plated in 24-wells culture plates at 2×10^6 cells per well in a total volume of 900 μL DMEMF12+10% FBS+2 mM L-Glutamine+Pen/Strep. Allow the cells to rest 1 h at 5-7% CO2 and 37° C. Serial dilutions log 10 from 10 mM to 316 nM of test compounds are made in 100% DMSO, followed by a 100-fold dilution into culture medium. For each well, 100 μL was then transferred to well plate containing 900 μL of Ramos B cells. Final compound concentration range in the assay varied from 10 μM to 0.316 nM, with a final DMSO concentration of 0.1% and incubated at 5-7% CO2 and 37° C. for 2h. Afterwards, cells are collected for the measurement of the BTK target occupancy using the BTK target occupancy ELISA as outlined below. The percent of drug-bound BTK in Ramos B cell samples was determined by an ELISA based method as follows: OptiPlate 96-well plates (Perkin Elmer) were coated with 125 ng/well anti-BTK Ab (BD Biosciences) and blocked with BSA (Sigma-Aldrich). […] One hundred L/well of SuperSignal ELISA Femto Substrate (ThermoFisher Scientific) was added and then chemiluminescence was measured after 1 minute (EnVision® plate reader; PerkinElmer). The percent of BTK occupancy for each sample was calculated relative to the vehicle control. […] Ramos cells were incubated with a dose range of M27 and BTK target occupancy was determined by ELISA.

T1 sequence (Q06187 whole entry): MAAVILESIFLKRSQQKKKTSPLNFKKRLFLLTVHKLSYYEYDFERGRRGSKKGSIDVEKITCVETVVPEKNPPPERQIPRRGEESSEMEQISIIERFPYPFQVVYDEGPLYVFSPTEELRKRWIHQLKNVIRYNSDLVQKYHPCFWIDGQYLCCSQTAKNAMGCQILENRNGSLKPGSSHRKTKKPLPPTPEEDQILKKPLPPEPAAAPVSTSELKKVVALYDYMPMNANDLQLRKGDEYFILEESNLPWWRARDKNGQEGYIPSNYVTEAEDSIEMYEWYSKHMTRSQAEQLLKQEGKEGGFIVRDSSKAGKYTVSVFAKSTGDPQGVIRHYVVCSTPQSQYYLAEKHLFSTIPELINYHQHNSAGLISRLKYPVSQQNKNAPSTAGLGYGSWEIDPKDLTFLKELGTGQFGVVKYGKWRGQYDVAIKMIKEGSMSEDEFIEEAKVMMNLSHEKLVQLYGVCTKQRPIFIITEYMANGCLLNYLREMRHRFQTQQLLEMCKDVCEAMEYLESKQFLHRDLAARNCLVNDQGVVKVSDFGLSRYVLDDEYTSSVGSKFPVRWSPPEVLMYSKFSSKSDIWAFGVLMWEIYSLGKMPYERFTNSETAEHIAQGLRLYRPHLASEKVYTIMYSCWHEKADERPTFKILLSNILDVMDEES

- pIC50 ([1]; 5 μM ATP, 0 minute pre-incubation): 7.56
- pIC50 ([1]; 5 μM ATP, 30 minutes pre-incubation): 7.90
- pIC50 ([1]; 5 μM ATP, 60 minutes pre-incubation): 8.16
- pIC50 ([1]; 25 μM ATP, 0 minute pre-incubation): 7.14
- pIC50 ([1]; 25 μM ATP, 30 minutes pre-incubation): 7.74
- pIC50 ([1]; 25 μM ATP, 60 minutes pre-incubation): 8.02
- pIC50 ([1]; 100 μM ATP, 0 minute pre-incubation): 7.00
- pIC50 ([1]; 100 μM ATP, 30 minutes pre-incubation): 7.63
- pIC50 ([1]; 100 μM ATP, 60 minutes pre-incubation): 7.97
- CYP2C8 inhibition [2]: weak inhibitor
- pIC50 [3]: 7.41
Compound: CC#CC(=O)NCCCC(=O)c1nc(-c2ccc(C(=O)Nc3ccccn3)cc2)c2c(N)nccn12 [Formula (I), 4-(8-amino-3-(4-(but-2-ynamido)butanoyl)imidazo[1,5-a]pyrazin-1-yl)-N-(pyridin-2-yl)benzamide]
